Where two headings read alike, the source gives them in different places.
What was measured:
[1] = tested on: Key Broadleaf Weed and Crop Species; test: Post-Emergent Test II: postemergent herbicidal activity, visual rating after 14 d (Table 7); assay type: in vivo; settings: post-emergence, 336 h; for pest or weed control at 35 g/ha: 35 g ai/ha; for pest or weed control at 70 g/ha: 70 g ai/ha; for pest or weed control at 140 g/ha: 140 g ai/ha
Text: (§1) Herbicidal evaluations were made visually on a scale of 0 to 100 where 0 represents no activity and 100 represents complete plant death.
(§2) Seeds or nutlets of the desired test plant species were planted in Sun Gro Metro-Mix® 360 planting mixture, which typically has a pH of 6.0 to 6.8 and an organic matter content of about 30 percent, in plastic pots with a surface area of 64 square centimeters (cm^2). When required to ensure good germination and healthy plants, a fungicide treatment and/or other chemical or physical treatment was applied. The plants were grown for 7-21 d in a greenhouse with an approximate 15 h photoperiod which was maintained at about 23-29° C. during the day and 22-28° C. during the night. Nutrients and water were added on a regular basis and supplemental lighting was provided with overhead metal halide 1000-Watt lamps as necessary. The plants were employed for testing when they reached the first or second true leaf stage.
(§3) A weighed amount, determined by the highest rate to be tested, of each test compound was placed in a 25 mL glass vial and was dissolved in 4 mL of a 97:3 v/v mixture of acetone and DMSO to obtain concentrated stock solutions. […] The concentrated stock solutions obtained were diluted with 20 mL of an aqueous mixture containing acetone, water, isopropyl alcohol, DMSO, Atplus 411F crop oil concentrate, and Triton® X-155 surfactant in a 48.5:39:10:1.5:1.0:0.02 v/v ratio to obtain spray solutions containing the highest application rates. Additional application rates were obtained by serial dilution of 12 mL of the high rate solution into a solution containing 2 mL of a 97:3 v/v mixture of acetone and DMSO and 10 mL of an aqueous mixture containing acetone, water, isopropyl alcohol, DMSO, Atplus 411F crop oil concentrate, and Triton X-155 surfactant in a 48.5:39:10:1.5:1.0:0.02 v/v ratio to obtain ½×, ¼×, ⅛× and 1/16× rates of the high rate. Compound requirements are based upon a 12 mL application volume at a rate of 187 liters per hectare (L/ha). Formulated compounds were applied to the plant material with an overhead Mandel track sprayer equipped with 8002E nozzles calibrated to deliver 187 L/ha over an application area of 0.503 square meters at a spray height of 18 inches (43 cm) above the average plant canopy height. Control plants were sprayed in the same manner with the solvent blank.
(§4) The treated plants and control plants were placed in a greenhouse as described above and watered by subirrigation to prevent wash-off of the test compounds. After 14 d, the condition of the test plants as compared with that of the untreated plants was determined visually and scored on a scale of 0 to 100 percent where 0 corresponds to no injury and 100 corresponds to complete kill and are presented as indicated in Table 4.

[2] = tested on: Key Grass and Sedge Weeds as well as Grass Crops; test: Post-Emergent Test II: postemergent herbicidal activity, visual rating after 14 d (Table 8); assay type: in vivo; settings: post-emergence, 336 h; for pest or weed control at 35 g/ha: 35 g ai/ha; for pest or weed control at 70 g/ha: 70 g ai/ha; for pest or weed control at 140 g/ha: 140 g ai/ha
Text: as §1, §2, §3, §4

[3] = lambsquarters (Chenopodium album), read-out: Visual Growth Reduction (%) 14 Days After Application CHEAL
[4] = oilseed rape, canola (Brassica napus), read-out: Visual Growth Reduction (%) 14 Days After Application BRSNN
[5] = redroot pigweed (Amaranthus retroflexus), read-out: Visual Growth Reduction (%) 14 Days After Application AMARE
[6] = sunflower (Helianthus annuus), read-out: Visual Growth Reduction (%) 14 Days After Application HELAN
[7] = velvetleaf (Abutilon theophrasti), read-out: Visual Growth Reduction (%) 14 Days After Application ABUTH
[8] = wild poinsettia (Euphorbia heterophylla), read-out: Visual Growth Reduction (%) 14 Days After Application EPHHL
[9] = barnyardgrass (Echinochloa crus-galli), read-out: Visual Growth Reduction (%) 14 Days After Application ECHCG
[10] = giant foxtail (Setaria faberi), read-out: Visual Growth Reduction (%) 14 Days After Application SETFA
[11] = rice (Oryza sativa), read-out: Visual Growth Reduction (%) 14 Days After Application ORYSA
[12] = wheat, spring (Triticum aestivum), read-out: Visual Growth Reduction (%) 14 Days After Application TRZAS
[13] = yellow nutsedge (Cyperus esculentus), read-out: Visual Growth Reduction (%) 14 Days After Application CYPES
[14] = maize, corn (Zea mays), read-out: Visual Growth Reduction (%) 14 Days After Application ZEAMX

COC(=O)c1nc(-c2ccc(Cl)c3c2OC(F)(F)O3)c(Cl)c(N)c1Cl [Compound 70]
0 to 29%: pest or weed control at 35 g/ha [1, 8] | pest or weed control at 70 g/ha [1, 8] | pest or weed control at 140 g/ha [1, 8] | pest or weed control at 35 g/ha [2, 9] | pest or weed control at 70 g/ha [2, 9] | pest or weed control at 140 g/ha [2, 9] | pest or weed control at 35 g/ha [2, 10] | pest or weed control at 70 g/ha [2, 10] | pest or weed control at 140 g/ha [2, 10] | pest or weed control at 35 g/ha [2, 11] | pest or weed control at 70 g/ha [2, 11] | pest or weed control at 140 g/ha [2, 11] | pest or weed control at 35 g/ha [2, 12] | pest or weed control at 70 g/ha [2, 12] | pest or weed control at 140 g/ha [2, 12] | pest or weed control at 35 g/ha [2, 13] | pest or weed control at 70 g/ha [2, 13] | pest or weed control at 140 g/ha [2, 13]
85 to 94%: pest or weed control at 70 g/ha [1, 3] | pest or weed control at 35 g/ha [1, 6]
75 to 84%: pest or weed control at 35 g/ha [1, 3] | pest or weed control at 140 g/ha [1, 4] | pest or weed control at 70 g/ha [1, 7] | pest or weed control at 140 g/ha [1, 7]
95 to 100%: pest or weed control at 140 g/ha [1, 3] | pest or weed control at 35 g/ha [1, 5] | pest or weed control at 70 g/ha [1, 5] | pest or weed control at 140 g/ha [1, 5] | pest or weed control at 70 g/ha [1, 6] | pest or weed control at 140 g/ha [1, 6]
60 to 74%: pest or weed control at 35 g/ha [1, 4] | pest or weed control at 70 g/ha [1, 4]
45 to 59%: pest or weed control at 35 g/ha [1, 7]

Cc1c(-c2cc(N)c(Cl)c(C(=O)O)n2)ccc2c1OC(F)(F)O2 [Compound 36]
85 to 94%: pest or weed control at 140 g/ha [1, 6]
95 to 100%: pest or weed control at 35 g/ha [1, 5] | pest or weed control at 70 g/ha [1, 5] | pest or weed control at 140 g/ha [1, 5]
45 to 59%: pest or weed control at 70 g/ha [1, 3] | pest or weed control at 140 g/ha [1, 3] | pest or weed control at 140 g/ha [1, 4] | pest or weed control at 140 g/ha [2, 10]
75 to 84%: pest or weed control at 35 g/ha [1, 6] | pest or weed control at 70 g/ha [1, 6]
0 to 29%: pest or weed control at 35 g/ha [1, 3] | pest or weed control at 35 g/ha [1, 4] | pest or weed control at 35 g/ha [1, 7] | pest or weed control at 70 g/ha [1, 7] | pest or weed control at 140 g/ha [1, 7] | pest or weed control at 35 g/ha [1, 8] | pest or weed control at 70 g/ha [1, 8] | pest or weed control at 140 g/ha [1, 8] | pest or weed control at 35 g/ha [2, 10] | pest or weed control at 35 g/ha [2, 14] | pest or weed control at 70 g/ha [2, 14] | pest or weed control at 140 g/ha [2, 14] | pest or weed control at 35 g/ha [2, 11] | pest or weed control at 70 g/ha [2, 11] | pest or weed control at 140 g/ha [2, 11] | pest or weed control at 35 g/ha [2, 12] | pest or weed control at 70 g/ha [2, 12] | pest or weed control at 140 g/ha [2, 12] | pest or weed control at 35 g/ha [2, 13] | pest or weed control at 70 g/ha [2, 13] | pest or weed control at 140 g/ha [2, 13]
30 to 44%: pest or weed control at 70 g/ha [1, 4] | pest or weed control at 70 g/ha [2, 10]
